In series [1] the test system is human monocytes. Kind of series: Assay (f): stimulated eicosanoid (PGE2, LTC4) release by human monocytes. Format: cell-based. The note with it: Monocyte, 0.25 h, A23187 1 μM, 15 min. The procedure: Assay (f): Measurement of stimulated eicosanoid release by human monocytes.
Leukocyte-rich leukopaks obtained from Biological Specialties (Lansdale, Pa.) were collected from male volunteers who were not taking anti-inflammatory drugs. Leukopaks were centrifuged (90× g for 15 min) twice to remove the platelet-rich plasma. The cell pellet was washed by centrifugation and resuspended in HBSS without Ca^2+ or Mg^2+. Histopaque 1077 was layered under the cell suspension and centrifuged at 400× g for 30 min to obtain the buffy coat. The interfacial buffy coat, containing monocytes and lymphocytes, was removed and saved. The buffy coat was washed twice with HBSS without Ca^2+ or Mg^2+ by centrifugation. The cell pellet (4-6×10^8 cells/30 mls) was resuspended in iso-osmotic media (RPMI-1640, 10% heat inactivated fetal bovine serum (FBS), 0.2 mM L-glutamine, 2.5 mM HEPES) and layered over an equal volume of 46% Percol mixture (10X PBS/Percol; 9.25/0.75) and 54% iso-osmotic media and centrifuged for 30 min at 1000× g (Marshall and Roshak, Biochem. Cell Biol. 71: 331-339, 1993). The monocyte population located at the interface of the Percoll gradient was removed and washed twice in HBSS without Ca^2+ or Mg^2+.
Monocytes (5×10^6 /ml) were incubated as a suspension in serum-free RPMI- 1640 medium containing the vehicle DMSO (<1%) or drug for 30 min at […] after which vehicle or stimuli was added for the indicated time. The stimulating agent is solubilized in DMSO and appropriate vehicle controls were included in all experiments. The amount of stimuli was chosen from the linear portion of a concentration versus product curve usually representing 60-80% maximal stimulation over the indicated incubation time at 37° C. (A23187, 1 μM,(15 min). The reaction was terminated by reduction of pH through addition of citric acid and centrifugation (10 min, 400× g, 4° C.). Cell viability was monitored before and after experiments using trypan blue exclusion. The cell-free media was decanted and stored at -70° C. until analyzed. Prostaglandin E2 and LTC4 were directly measured in cell-free media using enzyme immunoassay (EIA) kits purchased from Caymen Chemical Co. (Ann Arbor, Mich.). Sample or standard dilutions were made with appropriate media and analyzed in triplicate. Results were obtained by extrapolation from a standard curve prepared in the media and expressed as pg or ng/ml of sample.

The test system of series [2] is human neutrophils. Briefly: Assay (d): Production of Platelet-Activating Factor (PAF), A23187-challenged neutrophils. Format: cell-based. The note with it: A23187 2 μM. As to the method: Assay (d): Assay for Production of Platelet-Activating Factor (PAF)
Blood is obtained from normal humans and neutrophils were isolated as described for the arachidonic acid release assay, above. The final leukocyte preparation should be of greater than 95% purity and viability.
Neutrophils were suspended in PBS at concentrations of 5 to 20×10^6 cells per ml. Cells were added to test tubes and treated with the desired compounds for 5 to 10 minutes, then challenged with calcium ionophore A23187, 2 μM and 20-30 μCi of [3H]acetic acid (NEN-Dupont, Boston, Mass.), or the vehicle of PBS with 0.25-1 mg/ml. After 5 to 20 minutes, the reactions were terminated by addition of an equal volume of chloroform:methanol (1:2, v/v) to the samples and the lipids were extracted by addition of equal volumes of chloroform and distilled water. The samples were vortexed and centrifuged at high speed and the chloroform layer removed to a clean tube.
The chloroform from each tube was evaporated to dryness and the material suspended in a small volume of chloroform or chloroform:methanol (25-100 μl) and the total material spotted on a Silica TLC plate. The plates were developed in chloroform/methanol/acetic acid/water (50:25:8:4, v/v) visualized by radioscanning (Bioscan) and the product, [^3 H]PAF, was scraped and quantified by liquid scintillation spectroscopy. […]

The test system of series [3] is CoA-IT. Kind of series: Assay (b): CoA-IT activity in U937 cell microsomes. Format: biochemical, human. The note with it: generally at 50 μM or less. From the text:
Assay (b): CoA-IT Activity
The following is a method to measure CoA-IT activity and the effects of compounds on CoA-IT activity. The assay is based upon mixing cellular material containing CoA-IT activity with a stable lyso phospholipid such as […] and measuring the production of phospholipid product such as […] occurring in the absence of added CoA or CoA-fatty acids.
Any inflammatory cell that contains high levels of CoA-IT activity can be used, such as neutrophils, macrophages or cell lines such as U937 cells. […] Cells were grown without differentiation (basal state) by any agent, such as dimethyl sulfoxide. As used herein, "inflammatory cells" include, but are not limited to neutrophils, macrophages, monocytes, lymphocytes, eosinophils, basophils, and mast cells.
Microsomes were prepared using standard techniques. In this case, cells were washed with a buffer of 250 mM sucrose, 10 mM Tris, 1 mM EGTA, 1 mM MgCl2, pH 7.4 and ruptured by N2 cavitation (750 psi, 10 minutes). The ruptured cells were centrifuged 1000× g, 5 minutes. The resulting supernatant was centrifuged at 20,000×g,~20 minutes. Microsomes were prepared from this supernatant by centrifugation at 100,000× g, 60 minutes. The resulting pellet was washed once with assay buffer (150 mM NaCl, 10 mM Na2 KPO4, 1 mM EGTA, pH 7.4), recentrifuged and the pellet resuspended in assay buffer (4-20 mg protein/ml) and was stored at -80° C. until assayed.
CoA-IT activity was measured in 1.5 ml centrifuge tubes in a total volume of 100 ul. Microsomes were diluted in assay buffer to the desired protein concentration (6-20 ug/tube). The reaction was initiated by addition of [3H] 1-alkyl-2-lyso-sn-glycero-3-phosphocholine (GPC)(~0.1 uCi/tube) and 1 μM final cold 1-alkyl-2-lyso-GPC in assay buffer with 0.25 mg/ml fatty acid-poor bovine serumalbumin (BSA) (Calbiochem, La Jolla, Calif.). [3H]1-alkyl-2-lyso-GPC, approximately 50 Ci/mmol, was from NEN-Dupont (Boston, Mass.) and cold 1-alkyl-2-lyso-GPC was from Biomol (Plymouth Meeting, Penn.). Microsomes were pretreated with desired agents for the desired time (10 minutes) before the addition of [3H]1-alkyl-2-lyso-GPC. The reaction was run for the desired time (10 minutes) at 37° C. The reaction was stopped and the lipids extracted by addition of 100 ul of chloroform:methanol (1:2, v/v) followed by 100 ul of chloroform and 100 ul of 1M KCI. The samples were vortexed and centrifuged at high speed in a microfuge for 2-3 minutes. An aliquot of the chloroform-extracted materials were separated, usually by TLC in chloroform/methanol/acetic acid/water (50:25:8:4, v/v), visualized by radioscanning (Bioscan) and the product, [3H] 1-alkyl-2-acyl-GPC, was scraped and quantified by liquid scintillation spectroscopy. […] Other methods can be used to separate substrate from product, including but not limited to column chromatography, affinity chromatography and post reaction derivitization.

[4] abbreviates: read-out: IC50 for LTC4 release.

Each structure is given as a SMILES string. Where two headings read alike, the source gives them in different places.

As usually defined, the IC50 is the midpoint of a concentration-inhibition curve. As for `O=C(Nc1cc(C(F)(F)F)cc(C(F)(F)F)c1)Nc1ccccc1Oc1ccccc1C(=O)O` [Example 2, 2-[2-[3-[3,5-Bis (trifluoromethyl)phenyl]ureido]phenoxy]benzoic acid], the IC50 in series [1] (setting [4]) was roughly 1000 nM; in series [1] (read-out: IC50 of PGE2 release), 100 to 1000 nM. Moreover, in series [2], the “inhibition of PAF production” value is reported as “positive activity”. Further, in series [3], the “inhibition of CoA-IT activity in the microsomal CoA-IT assay” value is “inhibit CoA-IT activity”.

Take `O=C(Nc1cc(C(F)(F)F)cc(C(F)(F)F)c1)Nc1cc(C(F)(F)F)ccc1Oc1ccccc1C(=O)O` [Example 7, 2-[2-[3-[3,5-Bis(trifluoromethyl)phenyl]ureido]-4-trifluoromethylphenoxy]benzoic acid]: the figures for the IC50 in series [1] (setting [4]) and in series [1] (read-out: IC50 of PGE2 release) were 1000 to 2000 nM and greater than 10000 nM, respectively. The “inhibition of PAF production” value in series [2] is recorded as “positive activity”. Further, in series [3], the “inhibition of CoA-IT activity in the microsomal CoA-IT assay” value was “inhibit CoA-IT activity”.
